Results reported in US11155539B2, “4-pyridinylmethyl-morpholine derivatives and the use thereof as medicament” (Boehringer Ingelheim International GmbH, priority 2018, dated 2021).
Blank lines part the entries; values can stand above or below the compound they belong to.

Legend:
[1] = biological target: T1, MDR1 (P-gp) (Homo sapiens, UniProt P08183); test: MDCK assay P-gp (permeability across MDCK-MDR1 monolayers); format: in vitro ADME; conditions: for Papp A→B at 2 h: apical-to-basal, MDCK-MDR1 monolayers, pH 7.4; for efflux ratio at 2 h: pH 7.4, Papp (b-a) divided by Papp (a-b), MDCK-MDR1, read-out: efflux ratio PEBA/PEAB
T1 construct: expressed in transfected cells; host or cells: MDCKII (Madin-Darby canine kidney)
T1 sequence (P08183 whole entry): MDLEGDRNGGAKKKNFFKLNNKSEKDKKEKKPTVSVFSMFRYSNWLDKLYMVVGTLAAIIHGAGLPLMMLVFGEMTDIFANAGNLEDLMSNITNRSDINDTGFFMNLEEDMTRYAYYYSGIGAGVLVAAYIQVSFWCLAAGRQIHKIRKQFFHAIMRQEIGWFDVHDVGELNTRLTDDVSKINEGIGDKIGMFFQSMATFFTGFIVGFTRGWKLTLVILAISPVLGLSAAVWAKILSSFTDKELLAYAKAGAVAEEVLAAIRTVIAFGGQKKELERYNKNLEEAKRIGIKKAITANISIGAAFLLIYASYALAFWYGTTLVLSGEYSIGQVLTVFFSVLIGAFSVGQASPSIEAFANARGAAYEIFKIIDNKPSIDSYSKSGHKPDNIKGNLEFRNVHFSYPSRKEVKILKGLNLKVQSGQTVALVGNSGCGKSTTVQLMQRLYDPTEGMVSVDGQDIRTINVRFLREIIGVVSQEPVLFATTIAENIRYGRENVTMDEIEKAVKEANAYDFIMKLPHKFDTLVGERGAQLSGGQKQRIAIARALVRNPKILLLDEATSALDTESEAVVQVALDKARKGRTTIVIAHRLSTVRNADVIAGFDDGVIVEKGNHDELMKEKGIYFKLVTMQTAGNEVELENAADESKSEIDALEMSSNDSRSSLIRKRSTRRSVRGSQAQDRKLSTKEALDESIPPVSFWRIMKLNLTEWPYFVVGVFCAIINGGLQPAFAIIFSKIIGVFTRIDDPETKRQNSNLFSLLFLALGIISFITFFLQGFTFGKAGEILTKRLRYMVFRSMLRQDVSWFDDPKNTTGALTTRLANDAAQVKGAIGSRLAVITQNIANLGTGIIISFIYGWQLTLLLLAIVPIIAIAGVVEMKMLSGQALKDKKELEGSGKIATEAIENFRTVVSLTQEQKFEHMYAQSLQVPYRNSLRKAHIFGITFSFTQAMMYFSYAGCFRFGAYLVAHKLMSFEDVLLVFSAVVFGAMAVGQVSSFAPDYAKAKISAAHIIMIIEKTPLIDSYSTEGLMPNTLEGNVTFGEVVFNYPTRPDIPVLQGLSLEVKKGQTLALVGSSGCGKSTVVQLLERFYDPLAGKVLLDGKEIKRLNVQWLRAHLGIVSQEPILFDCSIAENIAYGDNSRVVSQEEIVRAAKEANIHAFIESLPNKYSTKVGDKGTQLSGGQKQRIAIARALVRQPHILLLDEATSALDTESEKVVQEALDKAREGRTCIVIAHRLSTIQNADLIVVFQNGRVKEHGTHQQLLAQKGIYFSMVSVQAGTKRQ
Protocol: The MDCK assays provide information on the potential of a compound to pass the blood brain barrier. Permeability measurements across polarized, confluent MDCK-MDR1 cell monolayers grown on permeable filter supports are used as an in vitro absorption model: apparent permeability coefficients (PE) of the compounds across the MDCK-MDR1 cell monolayers are measured (pH 7.4, 37° C.) in apical-to-basal (AB) and basal-to-apical (BA) transport direction. The AB permeability (PEAB) represents drug absorption from the blood into the brain and the BA permeability (PEBA) drug efflux from the brain back into the blood via both, passive permeability as well as active transport mechanisms mediated by efflux and uptake transporters that are expressed on the MDCK-MDR1 cells, predominantly by the overexpressed human MDR1. Identical or similar permeabilities in both transport directions indicate passive permeation (PEBA/PEAB≤1), vectorial permeability points to additional active transport mechanisms. Higher PEBA than PEAB (PEBA/PEAB>5) indicates the involvement of active efflux mediated by MDR1, which might compromise the goal to achieve sufficient brain exposure. Therefore, this assay provides valuable support for selection of compounds applicable for further in vivo testing. High permeability not limited by efflux at the blood brain barrier is a favorable characteristic for compounds that are to be used for drugs acting primarily in the CNS.
Apparent permeability coefficients (Papp) of the compounds across the MDCK-MDR1 monolayers (MDCKII cells transfected with human MDR1 cDNA expression plasmid) are measured in apical-to-basal (AB) and basal-to-apical (BA) direction. MDCK-MDR1 cells (6×10^5 cells/cm^2) are seeded on filter inserts (Corning, Transwell, polycarbonate, 0.4 μm pore size) and cultured for 9 to 10 days. Compounds dissolved in DMSO stock solution (1-20 mM) are diluted with HTP-4 aqueous buffer (128.13 mM NaCl, 5.36 mM KCl, 1 mM MgSO4, 1.8 mM CaCl2, 4.17 mM NaHCO3, 1.19 mM Na2HPO4, 0.41 mM NaH2PO4, 15 mM HEPES, 20 mM glucose, pH 7.4) supplemented with 0.25% BSA to prepare the transport solutions (final concentration: 1 or 10 μM, final DMSO<=0.5%). The transport solution is applied to the apical or basolateral donor side for measuring A-B or B-A permeability, respectively. The receiver side contains HTP-4 buffer supplemented with 0.25% BSA. Samples are collected at the start and end of experiment from the donor and at various time intervals for up to 2 hours also from the receiver side for concentration measurement by HPLC-MS/MS (RapidFire High-throughput MS System (Agilent) coupled to QTrap 6500 (AB Sciex) or TSQ Vantage (Thermo Scientific)). Sampled receiver volumes are replaced with fresh receiver solution. Efflux ratio is calculated dividing the Papp (b-a) values by the Papp (a-b) values.

[2] = biological target: Nav1.6 (Homo sapiens, UniProt Q9UQD0); test: Nav 1.6 inhibition, IonWorks Quattro electrophysiology; format: cell-based; conditions: for inhibition at 1 µM / inhibition at 5 µM: normalized to vehicle control (0%) and maximal inhibition control (100%); for inhibition of Nav1.6 currents (in words): reference compounds, FIG. 1 and FIG. 2
Chain of Nav1.6 (Q9UQD0 whole entry): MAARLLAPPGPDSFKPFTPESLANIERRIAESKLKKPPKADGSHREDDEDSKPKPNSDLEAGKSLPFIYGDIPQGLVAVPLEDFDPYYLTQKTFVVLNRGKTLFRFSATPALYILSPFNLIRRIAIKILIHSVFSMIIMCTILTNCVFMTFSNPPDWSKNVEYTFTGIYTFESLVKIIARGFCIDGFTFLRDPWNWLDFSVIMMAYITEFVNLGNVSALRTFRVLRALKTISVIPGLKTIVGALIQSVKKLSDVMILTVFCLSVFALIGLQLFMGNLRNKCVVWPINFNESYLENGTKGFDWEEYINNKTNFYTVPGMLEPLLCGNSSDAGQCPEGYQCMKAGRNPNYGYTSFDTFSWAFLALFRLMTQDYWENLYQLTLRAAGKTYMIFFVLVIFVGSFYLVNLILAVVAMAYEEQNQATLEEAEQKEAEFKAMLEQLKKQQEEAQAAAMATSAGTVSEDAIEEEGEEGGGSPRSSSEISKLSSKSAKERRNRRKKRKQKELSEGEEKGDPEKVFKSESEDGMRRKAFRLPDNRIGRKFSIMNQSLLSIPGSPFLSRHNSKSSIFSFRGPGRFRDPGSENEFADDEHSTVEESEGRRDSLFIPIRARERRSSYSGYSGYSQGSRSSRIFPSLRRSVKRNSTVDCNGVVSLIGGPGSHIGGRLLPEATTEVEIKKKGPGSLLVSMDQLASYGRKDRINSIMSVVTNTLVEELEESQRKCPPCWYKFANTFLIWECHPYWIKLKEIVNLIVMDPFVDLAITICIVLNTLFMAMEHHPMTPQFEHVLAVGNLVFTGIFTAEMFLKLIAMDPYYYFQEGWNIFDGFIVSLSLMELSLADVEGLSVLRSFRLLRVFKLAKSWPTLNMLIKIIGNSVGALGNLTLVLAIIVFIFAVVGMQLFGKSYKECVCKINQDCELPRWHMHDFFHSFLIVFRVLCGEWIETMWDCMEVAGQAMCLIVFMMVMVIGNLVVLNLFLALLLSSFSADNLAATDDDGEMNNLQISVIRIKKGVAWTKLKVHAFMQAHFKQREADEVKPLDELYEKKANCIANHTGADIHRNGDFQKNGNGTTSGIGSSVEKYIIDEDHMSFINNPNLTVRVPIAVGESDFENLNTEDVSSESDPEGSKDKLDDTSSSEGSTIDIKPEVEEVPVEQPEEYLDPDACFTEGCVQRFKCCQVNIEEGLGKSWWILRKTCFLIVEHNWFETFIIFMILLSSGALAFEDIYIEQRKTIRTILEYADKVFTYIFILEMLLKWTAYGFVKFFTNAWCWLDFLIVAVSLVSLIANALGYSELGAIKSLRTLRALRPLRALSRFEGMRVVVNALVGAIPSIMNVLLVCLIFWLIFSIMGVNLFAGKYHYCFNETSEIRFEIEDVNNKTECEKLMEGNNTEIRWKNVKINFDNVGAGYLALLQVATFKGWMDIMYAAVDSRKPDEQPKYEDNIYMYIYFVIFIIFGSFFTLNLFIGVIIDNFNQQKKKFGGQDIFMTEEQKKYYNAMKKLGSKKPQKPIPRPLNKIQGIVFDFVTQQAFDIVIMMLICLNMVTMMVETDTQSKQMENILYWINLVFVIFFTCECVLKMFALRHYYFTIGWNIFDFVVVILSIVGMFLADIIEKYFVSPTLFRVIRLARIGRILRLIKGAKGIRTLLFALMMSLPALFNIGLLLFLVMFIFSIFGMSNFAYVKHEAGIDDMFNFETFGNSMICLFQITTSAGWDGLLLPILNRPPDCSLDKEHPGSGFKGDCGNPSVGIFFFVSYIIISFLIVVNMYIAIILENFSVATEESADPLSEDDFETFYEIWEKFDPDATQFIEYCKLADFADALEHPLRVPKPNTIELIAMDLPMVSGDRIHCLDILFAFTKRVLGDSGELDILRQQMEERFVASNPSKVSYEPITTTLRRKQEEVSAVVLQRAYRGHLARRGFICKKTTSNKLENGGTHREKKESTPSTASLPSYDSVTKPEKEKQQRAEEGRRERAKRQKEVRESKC
Protocol: Determination of Nav 1.6.Inhibition
IonWorks Quattro electrophysiological platform
The compounds were prepared in DMSO at 300× the final assay concentrations of 1 and 5 μM.
The 300×DMSO stock solutions were transferred into assay plates where 2 μl per well of each 300× stock solution were placed. All assay plates were stored at −80° C. until the day of assay.
On the day of the assay, the appropriate assay plate was thawed at room temperature, centrifuged, and 198 μl of external recording solution was added and mixed thoroughly. This provided a 1:100 dilution. A further 1:3 dilution occurred upon addition to the cells in the IonWorks Quattro electrophysiological platform, giving a 1:300 dilution in total. On each assay plate, at least 8 wells were reserved for vehicle control (0.3% DMSO) and at least 8 wells for each positive control specific to the cell line tested. The positive controls were tested at a maximal blocking and an approximate IC50 concentration. As positive control Lidocaine at concentrations of 30 and 1000 μM was used.
The solutions for recording Nav1.6 currents were as follows:
Amphotericin B was used to obtain electrical access to the cell interior at a final concentration of 200 μg/ml in internal recording solution.
State-dependent inhibition: Sodium channels when held at depolarized potential or long test pulse, the channels open and inactivate and then stay inactivated until the membrane potential is stepped back to hyperpolarized potentials, when the inactivated channels recover from inactivation into closed state.
Cells were held at −120 mV. In order to completely inactivate the sodium channels (pulse 1), the cells were pulsed to +0 mV for 2500 ms and stepped back to −120 mV for 10 ms (to completely recover from inactivation, however channels that had drugs bound to them will not recover from inactivation) before stepping to +0 mV for 20 ms (pulse 2).
Both the positive and vehicle control data associated with each cell line assayed are shown below as an example. The mean is shown for each positive and negative control as solid symbol with the total number of individual well replicates given next to the solid symbol. In addition, the individual data of each well are shown on the graph as open symbols so that the variation about the mean value can be readily assessed.
Shown below are the assay controls for the Nav1.6 IonWorks Quattro assay.
Tables 3 and 4 show the normalized percentage inhibition of Nav1.6 channel. […] (see also the figure Assay Control Results above).

[3] = Metabolic stability in pooled human liver microsomes; format: in vitro ADME; conditions: pH 7.6, 1 μM compound, 37° C., NADPH, read-out: Half-life - t½ human liver microsomes
Description: Stability in human liver microsomes refers to the susceptibility of compounds to biotransformation in the context of selecting and/or designing drugs with favorable pharmacokinetic properties. The primary site of metabolism for many drugs is the liver. Human liver microsomes contain the cytochrome P450s (CYPs), and thus represent a model system for studying drug metabolism in vitro Enhanced stability in human liver microsomes is associated with several advantages, including increased bioavailability and adequate half-life, which can enable lower and less frequent dosing of patients. Thus, enhanced stability in human liver microsomes is a favorable characteristic for compounds that are to be used for drugs.
The metabolic degradation of the test compound was assayed at 37° C. with pooled human liver microsomes. The final incubation volume of 60 μl per time point contains TRIS buffer pH 7.6 at room temperature (0.1 M), magnesium chloride (5 mM aqueous solution), microsomal protein (1 mg/mL for human) and the test compound at a final concentration of 1 μM. Following a short preincubation period at 37° C., the reactions were initiated by addition of betanicotinamide adenine dinucleotide phosphate, reduced form (NADPH, 1 mM), and terminated by transferring an aliquot into acetonitril after different time points. After centrifugation (10000 g, 5 min), an aliquot of the supernatant was assayed by HPLC-MS/MS as described above for the MDCK assay P-gp for the amount of parent compound. The half-life was determined by the slope of the semi-logarithmic plot of the concentration-time profile.

[4] = biological target: T2, NMDA NR1/NR2B receptor (Homo sapiens, UniProt Q05586+Q13224); test: In vitro NMDA NR1/NR2B cell assay (FLIPR, intracellular calcium induced by glycine/glutamate); format: cell-based; conditions: HEK293 cells expressing NMDA NR1/NR2B; 20 μM glycine, 1 μM glutamate; read-out: IC50 (in vitro NR2B affinity, FLIPR assay)
T2 construct: host or cells: HEK293, tetracycline-inducible expression
T2 sequence (Q13224 27-1484, other chains not shown): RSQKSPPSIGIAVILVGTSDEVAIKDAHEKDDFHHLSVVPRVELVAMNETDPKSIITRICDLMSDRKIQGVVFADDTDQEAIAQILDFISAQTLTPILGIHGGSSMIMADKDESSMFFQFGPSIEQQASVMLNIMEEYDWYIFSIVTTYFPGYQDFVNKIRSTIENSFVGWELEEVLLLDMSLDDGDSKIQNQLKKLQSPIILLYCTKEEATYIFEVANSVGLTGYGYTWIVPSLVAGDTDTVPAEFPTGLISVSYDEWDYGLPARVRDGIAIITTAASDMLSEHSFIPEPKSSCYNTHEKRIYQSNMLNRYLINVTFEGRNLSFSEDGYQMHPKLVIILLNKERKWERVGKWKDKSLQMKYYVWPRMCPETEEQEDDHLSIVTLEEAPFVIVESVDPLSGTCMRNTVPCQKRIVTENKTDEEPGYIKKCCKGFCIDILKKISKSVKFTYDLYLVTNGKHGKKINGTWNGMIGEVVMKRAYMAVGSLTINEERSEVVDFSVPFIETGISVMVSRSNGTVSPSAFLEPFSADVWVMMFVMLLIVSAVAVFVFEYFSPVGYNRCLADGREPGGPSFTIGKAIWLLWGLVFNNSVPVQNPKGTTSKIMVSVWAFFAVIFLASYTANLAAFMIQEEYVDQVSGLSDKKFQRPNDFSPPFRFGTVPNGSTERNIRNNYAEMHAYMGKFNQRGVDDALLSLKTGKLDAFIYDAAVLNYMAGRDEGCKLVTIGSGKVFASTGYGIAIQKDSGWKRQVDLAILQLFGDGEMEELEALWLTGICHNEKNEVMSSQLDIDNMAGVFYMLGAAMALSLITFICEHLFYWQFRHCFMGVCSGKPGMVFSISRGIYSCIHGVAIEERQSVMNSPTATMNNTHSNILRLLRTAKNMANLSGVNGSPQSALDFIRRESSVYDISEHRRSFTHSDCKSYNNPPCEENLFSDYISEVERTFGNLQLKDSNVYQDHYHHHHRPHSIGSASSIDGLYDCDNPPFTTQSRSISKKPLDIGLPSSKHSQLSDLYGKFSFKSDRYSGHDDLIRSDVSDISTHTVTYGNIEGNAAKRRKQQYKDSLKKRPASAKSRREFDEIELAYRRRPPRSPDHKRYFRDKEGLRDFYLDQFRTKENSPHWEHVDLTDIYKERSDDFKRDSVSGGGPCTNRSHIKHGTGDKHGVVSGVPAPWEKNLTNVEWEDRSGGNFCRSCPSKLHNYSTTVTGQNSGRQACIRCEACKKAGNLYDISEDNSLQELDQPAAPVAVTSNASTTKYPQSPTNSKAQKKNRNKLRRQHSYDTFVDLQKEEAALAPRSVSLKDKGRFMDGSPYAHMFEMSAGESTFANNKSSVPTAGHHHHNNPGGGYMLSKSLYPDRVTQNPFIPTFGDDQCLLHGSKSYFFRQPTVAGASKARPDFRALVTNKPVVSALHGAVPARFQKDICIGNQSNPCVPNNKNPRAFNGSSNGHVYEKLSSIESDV
Protocol: A human HEK293 cell line with tetracyclin-inducible expression of NMDA NR1/NR2B receptor was used as a test system for compound efficacy and potency. The cell line was purchased from ChanTest, Catalog #CT6121. Compound activity was determined by measuring the effect of compounds on intracellular calcium concentration induced by glycine/glutamate agonism in a FLIPRtetra system (Molecular Devices).
The cells were obtained as frozen cells in cryo-vials and stored until use at −150° C. Cells were grown in culture medium (DMEM/F12, 10% FBS, 5 μg/mL Blasticidin, 150 μg/mL Zeozin, 500 μg/mL Geneticin). […] For sub-culturing the cells were detached from flasks by Versene. For the assay, cells were detached, washed twice with induction medium (DMEM/F12 without glutamine, 10% FBS, 2 μg/mL Tetracycline, 2 mM Ketamine) and seeded to 384 well pure coat amine plates (Becton Dickinson, 50000 cells per well in 50 μl) 48 h prior to assay in induction medium.
The test compounds were dissolved in 100% DMSO at a concentration of 10 mM and in a first step diluted in DMSO to a concentration of 5 mM, followed by serial dilution steps in 100% DMSO. Dilution factor and number of dilution steps may vary according to needs. Typically 8 different concentrations by 1:5 dilutions were prepared in duplicate, further intermediate dilutions (1:37.5) of the substances were carried out with aqueous assay buffer (137 mM NaCl, 4 mM KCl, 1.8 mM CaCl2, 10 mM HEPES, 10 mM Glucose, pH 7.4) resulting in a compound concentration 3 times above the final test concentration and DMSO at 2.7% resulting in 0.9% final DMSO concentration in the assay.
At the assay day cells were washed 3× with assay buffer (as described above), 10 μL buffer remained in the wells after washing. 10 μL Ca kit loading buffer (AAT Bioquest; prepared from the kit containing the following components: Component A: Fluo-8 NW dissolved in 200 μL DMSO and 20 μl of this solution are mixed with 10 ml buffer prepared out of component B and C, Component B: 10× Pluronic® F127 Plus diluted 1:10 in component C, Component C: HHBS (Hanks with 20 mM Hepes) was added to the cells and the plates were incubated with lid for 60 minutes at room temperature. 20 μl assay buffer containing 60 μM glycine (20 μM final) and 3 μM glutamate (1 μM final) was added to column 1-23, column 24 got assay buffer without glycine/glutamate to serve as negative unstimulated control. Fluorescence (indicating the calcium influx as a result of the NR1/NR2B ion channel activation) was read on the FLIPRtetra device for 60 seconds to monitor the glutamate induced effects. After 2 minutes 20 μL of compound dilution prepared as described above or controls (row 1-22) in assay buffer were carefully added to the wells. […] The average of 2 measurements at 5 minutes and […] 10 seconds after compound addition is calculated and further used for IC50 calculations. Each assay microtiter compound dilution plate contained wells (in column 23 or 24) with DMSO controls instead of compound as controls for glycine/glutamate induced fluorescence (high controls) and wells with 1 μM of a reference NR2B NAM as low controls (Compound 22; reference: Layton, Mark E et al, ACS Chemical Neuroscience 2011, 2(7), 352-362).
The output file of the reader contains the well number and measured average fluorescence units. For data evaluation and calculation, the measurement of the low control was set as 0% control and the measurement of the high control was set as 100% control. The IC50 values were calculated using the standard 4 parameter logistic regression formula. Calculation: [y=(a−d)/(1+(x/c)^b)+d], a=low value, d=high value; x=conc M; c=IC50 M; b=slope.

SMILES: CNC(=O)C1CN(Cc2ccc(Oc3ccc(F)cc3F)nc2)CCO1 (stereo not shown) [Example 11]
- Papp A→B at 2 h [1]: 72 ×10⁻⁶ cm/s
- efflux ratio at 2 h [1]: 0.6
- inhibition at 1 µM [2]: 4.2%
- inhibition at 5 µM [2]: -3.6%
- half-life at 1 μM [3]: > 2.17 h

SMILES: CNC(=O)[C@@H]1CN(Cc2ccc(Oc3ccc(F)cc3F)nc2)CCO1 [Example 11]
- IC50 [4]: 103 nM

SMILES: CNC(=O)C1CN(Cc2ccc(Oc3ccc(C)cc3F)nc2)CCO1 (stereo not shown) [Example 12]
- Papp A→B at 2 h [1]: 80 ×10⁻⁶ cm/s
- efflux ratio at 2 h [1]: 0.7
- inhibition at 1 µM [2]: 5.1%
- inhibition at 5 µM [2]: 10.2%
- half-life at 1 μM [3]: > 2.17 h

SMILES: CNC(=O)[C@@H]1CN(Cc2ccc(Oc3ccc(C)cc3F)nc2)CCO1 [Example 12]
- IC50 [4]: 117 nM

SMILES: CNC(=O)C1CN(Cc2ccc(Oc3ccc(C)cc3C)nc2)CCO1 (stereo not shown) [Example 13]
- Papp A→B at 2 h [1]: 45 ×10⁻⁶ cm/s
- efflux ratio at 2 h [1]: 1
- inhibition at 1 µM [2]: -3.1%
- inhibition at 5 µM [2]: -1.8%
- half-life at 1 μM [3]: > 2.17 h

SMILES: CNC(=O)[C@@H]1CN(Cc2ccc(Oc3ccc(C)cc3C)nc2)CCO1 [Example 13]
- IC50 [4]: 442 nM

SMILES: CNC(=O)[C@@H]1CN(Cc2ccc(Oc3ccc(F)cc3)nc2)CCO1 [Example 14]
- IC50 [4]: 198 nM

SMILES: CNC(=O)[C@@H]1CN(Cc2ccc(Oc3ccc(Cl)cc3F)nc2)CCO1 [Example 15]
- IC50 [4]: 69 nM

SMILES: CNC(=O)[C@@H]1CN(Cc2ccc(Oc3ccc(Cl)cc3)nc2)CCO1 [Example 16]
- IC50 [4]: 205 nM

SMILES: CNC(=O)[C@@H]1CN(Cc2ccc(Oc3ccccc3)cn2)CCO1 [Example 35]
- IC50 [4]: 457 nM

SMILES: CCN(CC)CC(=O)Nc1c(C)cccc1C [Lidocaine, reference compound]
- inhibition at 1000 µM ([2]; read-out: maximum inhibition at P1 (not normalized)): 46.4 to 47.2%
- inhibition of Nav1.6 currents (in words) [2]: inhibited evoked currents in a concentration and use dependent manner

SMILES: CCCCNc1ccc(C(=O)OCCN(C)C)cc1 [Tetracaine, reference compound]
- inhibition of Nav1.6 currents (in words) [2]: much stronger at depolarized potentials than at hyperpolarized potential

Second part, the compound after the results:

- IC50 [4]: 353 nM
SMILES: CNC(=O)[C@@H]1CN(Cc2ccc(Oc3ccccc3)nc2)CCO1 [Example 36]

- IC50 [4]: 203 nM
SMILES: CNC(=O)[C@@H]1CN(Cc2ccc(Oc3c(F)cccc3F)nc2)CCO1 [Example 37]

- IC50 [4]: 419 nM
SMILES: CNC(=O)[C@@H]1CN(Cc2ccc(Oc3c(C)cccc3F)nc2)CCO1 [Example 38]

- IC50 [4]: 282 nM
SMILES: CNC(=O)[C@@H]1CN(Cc2ccc(Oc3c(F)cccc3F)cn2)CCO1 [Example 39]

- IC50 [4]: 452 nM
SMILES: CNC(=O)[C@@H]1CN(Cc2ccc(Oc3cc(F)ccc3F)nc2)CCO1 [Example 40]

- IC50 [4]: 286 nM
SMILES: CNC(=O)[C@@H]1CN(Cc2ccc(Oc3cc(F)ccc3Cl)nc2)CCO1 [Example 41]
